Test results: the Kinase Knowledgebase extract (Sharma et al. 2016)

What follows are molecules tested against ROCK2 (human) (UniProt O75116) (assay: Inhibition of ROCK2 Kinase Activity).
Sequence of ROCK2 (human) (O75116 whole entry, looked up): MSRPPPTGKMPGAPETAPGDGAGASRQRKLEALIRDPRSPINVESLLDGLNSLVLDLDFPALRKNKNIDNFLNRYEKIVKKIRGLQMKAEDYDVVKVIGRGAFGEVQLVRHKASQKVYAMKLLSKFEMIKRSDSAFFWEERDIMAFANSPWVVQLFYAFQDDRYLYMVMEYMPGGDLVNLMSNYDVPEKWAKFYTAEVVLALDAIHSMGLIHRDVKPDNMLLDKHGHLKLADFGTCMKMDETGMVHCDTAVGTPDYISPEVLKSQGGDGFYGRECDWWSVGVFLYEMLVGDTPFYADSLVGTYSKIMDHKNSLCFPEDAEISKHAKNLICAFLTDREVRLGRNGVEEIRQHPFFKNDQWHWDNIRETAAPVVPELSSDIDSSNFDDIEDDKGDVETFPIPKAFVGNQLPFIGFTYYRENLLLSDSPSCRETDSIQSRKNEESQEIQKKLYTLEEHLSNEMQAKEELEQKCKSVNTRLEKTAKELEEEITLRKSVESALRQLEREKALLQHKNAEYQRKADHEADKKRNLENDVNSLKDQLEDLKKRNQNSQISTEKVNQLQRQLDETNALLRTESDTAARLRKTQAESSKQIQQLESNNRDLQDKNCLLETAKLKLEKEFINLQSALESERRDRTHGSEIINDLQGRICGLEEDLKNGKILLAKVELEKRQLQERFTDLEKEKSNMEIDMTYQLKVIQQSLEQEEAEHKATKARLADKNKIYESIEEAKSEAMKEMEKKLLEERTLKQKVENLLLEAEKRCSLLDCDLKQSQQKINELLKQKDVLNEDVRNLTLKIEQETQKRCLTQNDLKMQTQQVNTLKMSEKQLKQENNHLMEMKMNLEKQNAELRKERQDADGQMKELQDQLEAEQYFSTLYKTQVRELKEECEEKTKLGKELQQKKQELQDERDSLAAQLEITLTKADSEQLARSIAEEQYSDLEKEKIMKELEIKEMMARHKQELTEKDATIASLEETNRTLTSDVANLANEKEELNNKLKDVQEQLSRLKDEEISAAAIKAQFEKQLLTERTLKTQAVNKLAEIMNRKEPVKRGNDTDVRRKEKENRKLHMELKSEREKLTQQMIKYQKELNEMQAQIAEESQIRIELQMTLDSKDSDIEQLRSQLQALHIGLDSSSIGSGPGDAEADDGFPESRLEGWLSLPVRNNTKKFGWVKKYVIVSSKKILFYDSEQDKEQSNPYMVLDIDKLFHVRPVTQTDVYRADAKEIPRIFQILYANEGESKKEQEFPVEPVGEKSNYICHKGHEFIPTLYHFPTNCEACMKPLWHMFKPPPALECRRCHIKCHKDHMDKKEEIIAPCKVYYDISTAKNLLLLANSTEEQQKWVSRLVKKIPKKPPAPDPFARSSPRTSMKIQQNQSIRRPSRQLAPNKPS

Compound | IC50
CO[C@H](C(=O)Nc1cc2cc[nH]c(=O)c2cc1Cl)c1ccccc1 | < 1000 nM
CCOC(=O)CCC(=O)Nc1ccc2c(=O)[nH]ccc2c1 | < 1000 nM
O=C(Nc1cc2cc[nH]c(=O)c2cc1Cl)c1ccc([N+](=O)[O-])cc1C(F)(F)F | < 1000 nM
N[C@H]1C[C@H](C(=O)Nc2cc3cc[nH]c(=O)c3cc2Cl)C1 | < 1000 nM
COc1cc2c(=O)[nH]ccc2cc1NC(=O)[C@@H]1CCC[C@H](N)C1 | < 1000 nM
C[C@](O)(C(=O)Nc1cc2cc[nH]c(=O)c2cc1Cl)c1ccc(Cl)cc1 | < 1000 nM
O=C(Nc1cc2cc[nH]c(=O)c2cc1Cl)[C@H](O)c1cccc(Cl)c1 | < 1000 nM
O=C(Nc1cc2cc[nH]c(=O)c2cc1Cl)c1c(F)ccc(F)c1F | < 1000 nM
COc1cc2c(=O)[nH]ccc2cc1NC(=O)[C@H](OC)c1ccccc1 | < 1000 nM
O=C(CNCC1CCCCC1)Nc1ccc2c(=O)[nH]ccc2c1 | < 1000 nM
O=C(Nc1ccc2c(=O)[nH]ccc2c1)c1cccnc1Oc1ccc(Cl)cc1 | < 1000 nM
O=C(CNCc1ccccn1)Nc1cc2cc[nH]c(=O)c2cc1Cl | < 1000 nM
O=C(Nc1ccc2c(=O)[nH]ccc2c1)C1(c2ccc(Cl)cc2)CCCC1 | < 1000 nM
NC1(C(=O)Nc2ccc3c(=O)[nH]ccc3c2)CCCCC1 | < 1000 nM
O=C(CN[C@]12C[C@H]3C[C@H](C[C@H](C3)C1)C2)Nc1cc2cc[nH]c(=O)c2cc1Cl | < 1000 nM
O=C(CNCc1ccncc1)Nc1cc2cc[nH]c(=O)c2cc1Cl | < 1000 nM
CO[C@@H](C(=O)Nc1cc2cc[nH]c(=O)c2cc1Cl)c1ccccc1 | < 1000 nM
O=C(CNCc1cccnc1)Nc1cc2cc[nH]c(=O)c2cc1Cl | < 1000 nM
O=C(Nc1cc2cc[nH]c(=O)c2cc1Cl)[C@@H](O)c1ccccc1 | < 1000 nM
O=C(Nc1c(Cl)cc2c(=O)[nH]ccc2c1F)[C@H]1CNC[C@@H]1c1ccccc1 | < 1000 nM
O=C(Nc1cc2cc[nH]c(=O)c2cc1Cl)C1(c2ccccc2)CCNCC1 | < 1000 nM
CSCC(=O)Nc1cc2cc[nH]c(=O)c2cc1Cl | < 1000 nM
O=C(Nc1cc2cc[nH]c(=O)c2cc1Cl)[C@@H]1CCCCN1 | < 1000 nM
CCN(C)C(C(=O)Nc1cc2cc[nH]c(=O)c2cc1Cl)c1ccccc1 (centres undefined) | < 1000 nM
N[C@H](Cc1cccc2ccccc12)C(=O)Nc1cc2cc[nH]c(=O)c2cc1Cl | < 1000 nM
C[C@](O)(C(=O)Nc1cc2nc[nH]c(=O)c2cc1Cl)c1ccc(Cl)cc1 | < 1000 nM
O=C(Nc1cc2cc[nH]c(=O)c2cc1Cl)[C@H]1CCCO1 | < 1000 nM
Cc1ccc(F)cc1C(=O)Nc1cc2cc[nH]c(=O)c2cc1Cl | < 1000 nM
CCOC(=O)CC(=O)Nc1cc2cc[nH]c(=O)c2cc1Cl | < 1000 nM
CS(=O)(=O)c1ccc(Cl)c(C(=O)Nc2cc3cc[nH]c(=O)c3cc2Cl)c1 | < 1000 nM

Next, values leading:

IC50 | Compound
< 1000 nM | CN(C)C(C(=O)Nc1ccc2c(=O)[nH]ccc2c1)c1ccccc1 (centres undefined)
< 1000 nM | O=C(Nc1cc2cc[nH]c(=O)c2cc1Cl)C(NC1CCC1)c1ccccc1 (centres undefined)
< 1000 nM | N[C@@H](C(=O)Nc1ccc2c(=O)[nH]cnc2c1)c1ccccc1
< 1000 nM | CN(CC(=O)Nc1ccc2c(=O)[nH]cnc2c1)C1CCCCC1
< 1000 nM | CN1CCN(Cc2ccccc2C(=O)Nc2cc3cc[nH]c(=O)c3cc2Cl)CC1
< 1000 nM | O=C(Nc1ccc2c(=O)[nH]cnc2c1)C1CCN(Cc2ccccc2)CC1
< 1000 nM | O=C(CNCCc1cccs1)Nc1ccc2c(=O)[nH]cnc2c1
< 1000 nM | O=C(Nc1cc2cc[nH]c(=O)c2cc1Cl)C(NCC1CC1)c1ccccc1 (centres undefined)
< 1000 nM | O=C(Nc1ccc2c(=O)[nH]ccc2c1Cl)[C@H]1CNC[C@@H]1c1ccccc1
< 1000 nM | O=C(Nc1ccc2c(=O)[nH]ccc2c1)c1cccs1
< 1000 nM | O=C(Nc1ccc2c(=O)[nH]cnc2c1)C1(c2ccc(Cl)cc2)CCCC1
< 1000 nM | O=C(Nc1ccc2c(=O)[nH]cnc2c1)C1CCNCC1
< 1000 nM | Cc1cc(C(=O)Nc2ccc3c(=O)[nH]cnc3c2)n(C)n1
< 1000 nM | CC(C)N1CCC(C(=O)Nc2cc3cc[nH]c(=O)c3cc2Cl)CC1
